Test results: the supplement of paper PMC10307832

Assays:
Assay in all cases: relative viability (nuclei count vs DMSO), 5 days (fraction); higher = more cells survive
201T = test system: 201T
Procedure, shortened: (§1)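 Values are medians from duplicate plates. Each reflects relative viability, defined as the nuclei count of treated wells over that of vehicle wells. Lung cancer cell lines in 1536-well plates were pin-tool dosed one day after seeding with one drug alone or with a fixed anchor-drug dose plus five library-drug doses (not always all listed) in √10 steps, then fixed, stained and imaged at 4× after 5 days.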

COR-L 105 = test system: COR-L 105
Procedure, shortened: as §1

EPLC-272H = test system: EPLC-272H
Procedure, shortened: as §1

H3255 = test system: H3255
Procedure, shortened: as §1

HCC-78 = test system: HCC-78
Procedure, shortened: as §1

HCC-827 = test system: HCC-827
Procedure, shortened: as §1

LC-2-ad = test system: LC-2-ad
Procedure, shortened: as §1

LCLC-97TM1 = test system: LCLC-97TM1
Procedure, shortened: as §1

NCI-H1666 = test system: NCI-H1666
Procedure, shortened: as §1

NCI-H1915 = test system: NCI-H1915
Procedure, shortened: as §1

NCI-H2087 = test system: NCI-H2087
Procedure, shortened: as §1

NCI-H2126 = test system: NCI-H2126
Procedure, shortened: as §1

NCI-H2347 = test system: NCI-H2347
Procedure, shortened: as §1

NCI-H23 = test system: NCI-H23
Procedure, shortened: as §1

NCI-H2405 = test system: NCI-H2405
Procedure, shortened: as §1

NCI-H322M = test system: NCI-H322M
Procedure, shortened: as §1

NCI-H520 = test system: NCI-H520
Procedure, shortened: as §1

NCI-H647 = test system: NCI-H647
Procedure, shortened: as §1

NCI-H650 = test system: NCI-H650
Procedure, shortened: as §1

NCI-H661 = test system: NCI-H661
Procedure, shortened: as §1

PC-14 = test system: PC-14
Procedure, shortened: as §1

RERF-LC-KJ = test system: RERF-LC-KJ
Procedure, shortened: as §1

SMILES: CC1(C)CCC(c2ccc(Cl)cc2)=C(CN2CCN(c3ccc(C(=O)NS(=O)(=O)c4ccc(N[C@H](CCN5CCOCC5)CSc5ccccc5)c(S(=O)(=O)C(F)(F)F)c4)cc3)CC2)C1 [Navitoclax] + Cc1nc(NC(=O)N2CCC[C@H]2C(N)=O)sc1-c1ccnc(C(C)(C)C(F)(F)F)c1 [Alpelisib] (partner 2 µM)
- relative viability (201T; first compound 0.005 µM): 1.03
- relative viability (201T; first compound 0.01581 µM): 1.04
- relative viability (201T; first compound 0.05 µM): 1.02
- relative viability (201T; first compound 0.1581 µM): 1
- relative viability (201T; first compound 0.5 µM): 1.03
- relative viability (COR-L 105; first compound 0.005 µM): 0.878
- relative viability (COR-L 105; first compound 0.01581 µM): 1.22
- relative viability (COR-L 105; first compound 0.05 µM): 0.989
- relative viability (COR-L 105; first compound 0.1581 µM): 1.07
- relative viability (COR-L 105; first compound 0.5 µM): 0.978
- relative viability (EPLC-272H; first compound 0.005 µM): 0.877
- relative viability (EPLC-272H; first compound 0.1581 µM): 0.933
- relative viability (EPLC-272H; first compound 0.5 µM): 0.821
- relative viability (H3255; first compound 0.005 µM): 0.635
- relative viability (H3255; first compound 0.01581 µM): 0.745
- relative viability (H3255; first compound 0.05 µM): 0.6
- relative viability (H3255; first compound 0.1581 µM): 0.744
- relative viability (H3255; first compound 0.5 µM): 0.732
- relative viability (HCC-78; first compound 0.005 µM): 0.309
- relative viability (HCC-78; first compound 0.01581 µM): 0.352
- relative viability (HCC-78; first compound 0.1581 µM): 0.341
- relative viability (HCC-78; first compound 0.5 µM): 0.339
- relative viability (HCC-827; first compound 0.005 µM): 1.07
- relative viability (HCC-827; first compound 0.01581 µM): 1.1
- relative viability (HCC-827; first compound 0.05 µM): 0.766
- relative viability (HCC-827; first compound 0.1581 µM): 1.02
- relative viability (HCC-827; first compound 0.5 µM): 1.01
- relative viability (LC-2-ad; first compound 0.005 µM): 0.972
- relative viability (LC-2-ad; first compound 0.01581 µM): 0.948
- relative viability (LC-2-ad; first compound 0.05 µM): 0.901
- relative viability (LC-2-ad; first compound 0.1581 µM): 0.946
- relative viability (LC-2-ad; first compound 0.5 µM): 0.904
- relative viability (LCLC-97TM1; first compound 0.005 µM): 0.335
- relative viability (LCLC-97TM1; first compound 0.01581 µM): 0.328
- relative viability (LCLC-97TM1; first compound 0.05 µM): 0.241
- relative viability (LCLC-97TM1; first compound 0.1581 µM): 0.228
- relative viability (LCLC-97TM1; first compound 0.5 µM): 0.243
- relative viability (NCI-H1666; first compound 0.005 µM): 1.03
- relative viability (NCI-H1666; first compound 0.01581 µM): 0.944
- relative viability (NCI-H1666; first compound 0.05 µM): 1.06
- relative viability (NCI-H1666; first compound 0.1581 µM): 0.878
- relative viability (NCI-H1666; first compound 0.5 µM): 0.958
- relative viability (NCI-H1915; first compound 0.005 µM): 1.08
- relative viability (NCI-H1915; first compound 0.01581 µM): 1.06
- relative viability (NCI-H1915; first compound 0.05 µM): 1.01
- relative viability (NCI-H1915; first compound 0.1581 µM): 0.94
- relative viability (NCI-H1915; first compound 0.5 µM): 1
- relative viability (NCI-H2087; first compound 0.005 µM): 1.25
- relative viability (NCI-H2087; first compound 0.01581 µM): 1.17
- relative viability (NCI-H2087; first compound 0.05 µM): 1.03
- relative viability (NCI-H2087; first compound 0.1581 µM): 1.05
- relative viability (NCI-H2087; first compound 0.5 µM): 1.08
- relative viability (NCI-H2126; first compound 0.005 µM): 0.7
- relative viability (NCI-H2126; first compound 0.01581 µM): 0.764
- relative viability (NCI-H2126; first compound 0.05 µM): 0.757
- relative viability (NCI-H2126; first compound 0.1581 µM): 0.727
- relative viability (NCI-H2126; first compound 0.5 µM): 0.771
- relative viability (NCI-H2347; first compound 0.005 µM): 0.997
- relative viability (NCI-H2347; first compound 0.01581 µM): 1.07
- relative viability (NCI-H2347; first compound 0.05 µM): 1.08
- relative viability (NCI-H2347; first compound 0.1581 µM): 0.927
- relative viability (NCI-H2347; first compound 0.5 µM): 1.2
- relative viability (NCI-H23; first compound 0.005 µM): 0.649
- relative viability (NCI-H23; first compound 0.01581 µM): 0.679
- relative viability (NCI-H23; first compound 0.05 µM): 0.676
- relative viability (NCI-H23; first compound 0.1581 µM): 0.633
- relative viability (NCI-H23; first compound 0.5 µM): 0.598
- relative viability (NCI-H2405; first compound 0.005 µM): 0.762
- relative viability (NCI-H2405; first compound 0.01581 µM): 0.896
- relative viability (NCI-H2405; first compound 0.05 µM): 0.954
- relative viability (NCI-H2405; first compound 0.1581 µM): 0.83
- relative viability (NCI-H2405; first compound 0.5 µM): 0.834
- relative viability (NCI-H322M; first compound 0.005 µM): 0.644
- relative viability (NCI-H322M; first compound 0.01581 µM): 0.772
- relative viability (NCI-H322M; first compound 0.05 µM): 0.931
- relative viability (NCI-H322M; first compound 0.1581 µM): 0.791
- relative viability (NCI-H322M; first compound 0.5 µM): 0.591
- relative viability (NCI-H520; first compound 0.005 µM): 0.915
- relative viability (NCI-H520; first compound 0.01581 µM): 0.892
- relative viability (NCI-H520; first compound 0.05 µM): 0.981
- relative viability (NCI-H520; first compound 0.1581 µM): 0.892
- relative viability (NCI-H520; first compound 0.5 µM): 0.982
- relative viability (NCI-H647; first compound 0.005 µM): 1.04
- relative viability (NCI-H647; first compound 0.01581 µM): 1.35
- relative viability (NCI-H647; first compound 0.05 µM): 1.48
- relative viability (NCI-H647; first compound 0.1581 µM): 1.14
- relative viability (NCI-H647; first compound 0.5 µM): 0.75
- relative viability (NCI-H650; first compound 0.005 µM): 1.1
- relative viability (NCI-H650; first compound 0.01581 µM): 1.15
- relative viability (NCI-H650; first compound 0.05 µM): 1.15
- relative viability (NCI-H650; first compound 0.1581 µM): 1.11
- relative viability (NCI-H650; first compound 0.5 µM): 1.16
- relative viability (NCI-H661; first compound 0.005 µM): 0.438
- relative viability (NCI-H661; first compound 0.01581 µM): 0.468
- relative viability (NCI-H661; first compound 0.05 µM): 0.479
- relative viability (NCI-H661; first compound 0.1581 µM): 0.465
- relative viability (NCI-H661; first compound 0.5 µM): 0.673
- relative viability (PC-14; first compound 0.005 µM): 0.833
- relative viability (PC-14; first compound 0.01581 µM): 1.02
- relative viability (PC-14; first compound 0.05 µM): 0.92
- relative viability (PC-14; first compound 0.1581 µM): 0.926
- relative viability (PC-14; first compound 0.5 µM): 0.904
- relative viability (RERF-LC-KJ; first compound 0.005 µM): 0.794
- relative viability (RERF-LC-KJ; first compound 0.01581 µM): 0.839
- relative viability (RERF-LC-KJ; first compound 0.05 µM): 0.765
- relative viability (RERF-LC-KJ; first compound 0.1581 µM): 0.75
- relative viability (RERF-LC-KJ; first compound 0.5 µM): 0.793
